# Entries after “also recorded” stand apart in the source; their conditions may differ.
# How the values were obtained:
# [1] = Hygroscopicity: water content by TGA after storage at defined relative humidity; type: physicochemical
# Protocol: (§1) Samples of disodium tiludronate hemihydrate were stressed at humidity levels of 12-95% RH using different saturated salt solutions to obtain a range of relative humidity. The salt solutions used and the corresponding relative humidity are tabulated below:
# (§2) The samples were held for 2 weeks at each humidity at 20° C. and analyzed by TGA for moisture content. The samples were also analyzed by FTIR to determine if spectroscopic changes were observed. Samples which increased in moisture content after 2 weeks were then moved to lower relative humidity to determine if the water uptake was reversible.
# A sample of the monohydrate form was also stressed with respect to humidity. Samples were stressed at 58-95% RH at 20° C. for 2 weeks.
# B) Thermal Gravimetric Analysis (TGA)
# Thermal Gravimetric Analysis was performed on the Perkin Elmer TGA-7 system. Samples were weighed into a platinum pan and scanned at a rate of 5° C./min. under nitrogen purge gas.
# [2] = Hysteresis / reversibility of water uptake on moving to lower relative humidity; type: physicochemical; details: for stability / reversion at low relative humidity: moved to humidity as low as 31% RH after 75-95% RH
# Protocol: as §2
# Hysteresis data (samples stored at high humidity were moved from high to low humidity) for samples stressed at 75-95% RH is shown in FIG. 1b. […] If the moisture was hygroscopic in nature one would expect the moisture level to decrease as the humidity level is decreased.
# [3] = Crystal form change under humidity stress (FTIR, XRPD, TGA); type: physicochemical; details: for changes by TGA / FTIR at low relative humidity: 12-58% RH, 2 weeks; for crystal form change (FTIR, TGA): 75-85% RH (75% and 84% RH samples); for crystal form change (FTIR, XRPD, TGA): 95% RH
# Protocol: as §1, §2
# C) Fourier Transform Infrared Spectroscopy (FTIR)
# FTIR spectra were obtained on the Nicolet 730 system equipped with an MCT detector. Samples were run as KBr dispersions at approximately 1% concentration.
# D) X-Ray Powder Diffraction (XRPD)
# XRPD data was provided by Kodak Analytical Technology Division (Rochester, N.Y.) using a Rigaku RU 300 system at […].
# [4] = Solubility in acetate buffer pH 4.8, 20° C.; type: physicochemical; details: for solubility (concentration in acetate buffer): 30 min
# Protocol: The solubility of unstressed hemihydrate, the monohydrate form and a sample which was equilibrated at 95% RH, i.e. tetrahydrate were compared in acetate buffer. A pH value of 4.8 was chosen. Approximately 250 mg of drug was added to 1 ml of solvent and agitated with a laboratory rotator at 20° C. The sample was filtered (0.45 micron) and diluted (200 ul to 25 ml). This solution was then diluted by a factor of 5 prior to UV analysis. Samples were analyzed at time points of 0.5, 3.0, and 24 hours with the Hewlett Packard 8451A diode array spectrophotometer. Absorbance was measured at 264 nm versus a standard prepared in acetate buffer. The solubility was determined (based on anhydrous drug) for two different samples (of each form) at each time point.
# [5] = Intrinsic dissolution rate in acetate buffer pH 4.8, 20° C.; type: physicochemical; details: for intrinsic dissolution rate (average slope): acetate buffer pH 4.8, 20° C., 100 RPM, triplicate
# Protocol: F) Intrinsic Dissolution Rate
# The intrinsic dissolution rates of hemihydrate, the monohydrate form and tetrahydrate form were determined in acetate buffer (pH=4.8) at 20° C. A disk (0.5 cm^2) was compressed under the following conditions: 225-250 mg drug, 4000 lbs pressure, and 30 seconds compaction time. The disk was dissolved in a Vander Kamp VK 6000 dissolution bath in 250 ml solvent at 100 RPM. Samples were withdrawn at 2, 4, 6, 8, 10 and 15 minutes and diluted by a factor of 2 for UV analysis. Samples were analyzed at 264 nm with the Hewlett Packard 8451A diode array spectrophotometer. Intrinsic dissolution plots were generated by plotting concentration/area vs. time and determining the slope by linear regression. Each dissolution experiment was run in triplicate.
# [6] = ambient temperature and humidity
# [7] = listed as disodium tiludronate hemihydrate, hemihydrate
smiles,measurement,setting,value
"O=P(O)(O)C(Sc1ccc(Cl)cc1)P(=O)(O)O [Tiludronate, disodium 4-chlorophenylthiomethylenebisphosphonate]",moisture content as relative humidity is increased,[1]; increasing RH,does not increase in moisture content as relative humidity is increased until a relative humidity is reached where crystalline changes occur
"O=P(O)(O)C(Sc1ccc(Cl)cc1)P(=O)(O)O [hemihydrate, disodium 4-chlorophenylthiomethylenebisphosphonate hemihydrate]",water content (TGA analysis),"[1]; 12-58% RH, 20° C., 2 weeks",approximately 5%
same,water content,"[1]; 75% RH, 20° C., 2 weeks",8.4%
same,water content,"[1]; 84% RH, 20° C., 2 weeks",13.7%
same,moisture level / total weight loss (TGA),"[1]; 95% RH, 20° C., 2 weeks",16.4%
same,stability / reversion at low relative humidity,[2]; [7],did not revert at 31% RH
same,moisture level on moving stepwise to lower relative humidity (hysteresis),[2]; samples stressed at 75-95% RH,not reversible
same,changes by TGA / FTIR at low relative humidity,[3]; hemihydrate,no changes in spectra
same,changes by TGA / FTIR at low relative humidity,[3]; [7],no changes by TGA and FTIR
same,"crystal form change (FTIR, TGA)",[3]; hemihydrate,partial change to monohydrate and tetrahydrate
same,"crystal form change (FTIR, TGA)",[3]; [7],partial transformation to the tetrahydrate form; also recorded: mixture of forms
same,"crystal form change (FTIR, XRPD, TGA)",[3]; hemihydrate,conversion of the hemihydrate to the tetrahydrate form; also recorded: significant change in the FTIR spectra and X-ray pattern indicative of crystalline rearrangement
same,"crystal form change (FTIR, XRPD, TGA)",[3]; [7],crystalline changes accompany the increase in moisture content; also recorded: changed to a tetrahydrate form
same,solubility at 0.5 h,"[4]; acetate buffer, pH 4.8, aqueous buffer, pH 4.8, 20° C., 0.5 hours, based on anhydrous drug, read-out: solubility (concentration in acetate buffer)",147 mg/mL
same,solubility at 24 hours relative to tetrahydrate,"[4]; pH 4.8, 20° C., 24 hours",equivalent to the tetrahydrate
same,initial solubility relative to tetrahydrate,"[4]; pH 4.8, 20° C., initial",higher than the tetrahydrate form
same,FTIR analysis of residual solid in solubility samples,"[4]; pH 4.8, residual solid",conversion to the tetrahydrate
same,intrinsic dissolution rate (average slope),[5]; hemihydrate,0.0332 mg/(ml*cm^2 *min)
same,FTIR analysis of the disk at the end of the dissolution experiment,[5]; hemihydrate,conversion to the tetrahydrate form was occurring
"O=P(O)(O)C(Sc1ccc(Cl)cc1)P(=O)(O)O [monohydrate, disodium 4-chlorophenylthiomethylene-bisphosphonate monohydrate]",solubility (concentration in acetate buffer),"[4]; pH 4.8, 20° C., 0.5 hours, based on anhydrous drug, monohydrate",175 mg/mL
same,intrinsic dissolution rate (average slope),[5]; monohydrate,0.0351 mg/(ml*cm^2 *min)
same,FTIR analysis of the disk at the end of the dissolution experiment,[5]; monohydrate,did not show transformation to the tetrahydrate
"O=P(O)(O)C(Sc1ccc(Cl)cc1)P(=O)(O)O [tetrahydrate, disodium 4-chlorophenylthiomethylenebisphosphonate]",stability / reversion at low relative humidity,[2],stability of the tetrahydrate form at humidity levels as low as 31% RH
same,"crystal form change (FTIR, XRPD, TGA)",[3],little evidence of the monohydrate form
same,solubility (concentration in acetate buffer),"[4]; pH 4.8, 20° C., 0.5 hours, based on anhydrous drug",140 mg/mL
same,intrinsic dissolution rate (average slope),[5],0.0359 mg/(ml*cm^2 *min)
same,conversion to monohydrate or hemihydrate,[6],not convened to either the monohydrate or hemihydrate form thereof at ambient temperature and humidity

# Source: patent US5656288A, “Stable pharmaceutical compositions containing tiludronate hydrates and process for producing the pharmaceutical compositions” (Sanofi Winthrop, Inc., priority 1995, dated 1997)
